# Experiments:
# Format in all cases: cell-based
# [1] = system: H9-HIV cells; test: Intracellular cellular and retroviral proteins by flow cytometry in H9-HIV cells
# Method: Intracellular antigens were determined, as geometric means of fluorescence, by flow cytometric analysis using a BD FACSCalibur™ and its BD FACStation System™ (Becton Dickinson; San Jose, Calif.). Intracellular antigens were stained according to the instrument producer's instructions.
# CD4+ T cells isolated from infected individuals have increased Bcl-2 levels compared to uninfected lymphocytes and some reports implicate HIV-1 Tat in preventing apoptosis in persistently infected cells by inducing the transcription of Bcl-2. Since CPX blocks HIV-1 gene expression, Bcl-2 expression in H9 and H9-HIV cells was determined. […] Retroviral proteins can also control apoptosis. Therefore, assays were carried out to measure the response of individual retroviral proteins in H9-HIV (FIG. 10C) to the shut-down of the HIV-1 promoter by CPX. […] Vpr induces apoptosis via caspase-3 activation.
# [2] = system: HIV-1; test: Persistent PBMC infection model, long-term culture with drug withdrawal; conditions: for rebound of HIV-1 infection after drug withdrawal: off-drug inspection period extending to 12 weeks
# Method: Uninfected (5×10^6 cells) and infected PBMCs (0.5×10^6 cells) were co-incubated in a 25 ml culture flask at a final concentration of 0.22×10^6 cells/ml. Cultures were allowed to establish productive infection, defined by medium p24 at or above 250 pg/ml, and CPX was added. Cultures were replenished with Medium B and freshly isolated uninfected PBMCs on alternate days. For replacement of Medium B, half of the supernatant was gently exchanged without disturbing the cells, and the drug concentration was adjusted appropriately. For replacement with freshly isolated, stimulated and uninfected PBMCs, half of the cells and supernatant were removed and replaced with 2.5×10^6 cells in the proper volume of Medium B, with adjustment of the drug concentration. Cell-free supernatants were saved for p24 and viral RNA measurements.
# p24 core antigen in the supernatant was quantified by ELISA (Retrotek HIV-1 p24™; ZeptoMetrix Corp.; Buffalo, N.Y.). HIV-1 RNA copy number in the supernatant was determined with a PCR-based and FDA-approved assay (Amplicor HIV-1 Monitor™; Roche Diagnostics Corp.; Indianapolis, Ind.). IFN-γ and IL-10 in the supernatant were determined by cytometric bead array (Human Th1/Th2 Cytokine Kit II™; BD Biosciences Pharmingen, San Jose, Calif.).
# Next, assays were carried out to examine whether CPX can control established HIV-1 infection in primary cells. Long-term PBMC cultures were employed as a model for on-going, self-sustaining HIV-1 production. As before, infection was initiated by exposure to patient isolate-infected cells. To emulate the bulk flow of susceptible cells from a generative into an infective compartment that occurs in vivo, a replenishment protocol was followed. Freshly isolated uninfected primary cells were infused into the infected cultures at regular intervals during multi-month monitoring of viral parameters. HIV-1 RNA reached the range of 10^6 copies/ml within a week of patient isolate inoculation, and this robust infection was sustained for >3 months (FIG. 14; open squares).
# [3] = system: HIV-1 RNA; test: RNase protection assay of HIV RNA from molecular clones in 293T cells; conditions: for accumulation of FF mRNA: pNL4-3-LucE- in 293T; for reduction of spliced and unspliced HIV RNAs: pNL4-3-LucE-, cytoplasmic and nuclear fractions, 12 hr
# Method: 293T cells (2×10^6 cells) were seeded in 10-cmdiameter plates and transfected 20 hr later by using Transfectene (Bio-Rad) and treated with compounds. Cells were harvested at 15 hr post-transfection and suspended in a low salt buffer (10 mM Tris.HCl pH 7.4, 10 mM NaCl, 1.5 mM MgCl2, and 0.5% NP-40). Cells were vortexed for 10 sec and incubated on ice for 10 min. Cell extracts were centrifuged at 500×g for 3 min, followed by cytoplasmic and nuclear RNA isolation from the supernatant and the pellet, respectively, using Trizol (Invitrogen) according to the manufacturer's instructions.
# RPA was performed with 10 μg of cytoplasmic RNA and 5 μg of nuclear RNA, using the RPAIII kit from Ambion (Austin, Tex.) according to the manufacturer's instructions. Synthesis of radiolabeled RNA and protection assays were performed as described in Young et al. Mol Cell Biol 2003, 23:6373-6384. To generate antisense RNA probe against the HIV-1 major splice site, firefly luciferase and Renilla luciferase pBSII-KS+HIV (+80-341), pSP-luc and pSP-rluc were linearized with HindIII, XbaI and BsaI, respectively. The resulting probes were 309, 390 and 245 nt long, respectively. The antisense HIV-1 leader RNA probe complementary to nt+83 to −117 of the LTR was generated by subcloning between the XbaI and HindIII sites of the pcDNA3.1 vector. Antisense probe corresponding to the N terminus of eIF5A was generated by subcloning 250 nt of its cDNA sequence into pcDNA3.1.
# Next, the effects of CPX and DEF on viral mRNA expression were examined. […] To determine whether the action of CPX and DEF is exerted at the level of the accumulation, splicing or nucleo-cytoplasmic distribution of HIV RNA, pNL4-3-LucE- was transfected into 293T cells and monitored spliced and unspliced HIV RNA after drug treatment. RNase protection assays were carried out using a probe complementary to the 5′ region of all HIV-1 transcripts (Zheng et al. Nat Cell Biol 2003, 5:611-618). The probe spans the major splice donor site so two sizes of protected fragments are generated: unspliced RNA protects an RNA fragment 50 nucleotides (nt) longer than that from spliced RNAs (FIG. 4A). CPX and DEF, but not P2, reduced the level of both spliced and unspliced RNAs by ˜50% (FIG. 4B). […] In contrast, the production of Renilla luciferase RNA driven by the CMV promoter was unchanged in the nucleus and cytoplasm after drug treatment (FIG. 4B). […]
# The rev-defective molecular clone pMRev(−) contains the entire HIV-1 genome but Rev expression is prevented by substitutions in its initiation codon. To compare the inhibitory effect of CPX and DEF in the presence and absence of Rev, cells were transfected with pMRev(−), either with or without a Rev expression vector, and RNA was analyzed by RPA as above. […]
# [4] = CPX 30 μM from day 7 for one month, isolate #990,010
smiles,measurement,setting,value
"Cc1cc(C2CCCCC2)n(O)c(=O)c1 [CPX, 6-cyclohexyl-1-hydroxy-4-methylpyridin-2[1H]-one]",active caspase-3,"[1]; 30 μM CPX, 24 and 48 hr",the increase in Vpr paralleled that of active caspase-3
same,intracellular Rev,"[1]; 30 μM CPX, 24 and 48 hr",only marginally affected
same,intracellular Tat,"[1]; 30 μM CPX, 24 and 48 hr",similarly reduced
same,increase of Vpr level,"[1]; 30 μM CPX, within 24 hr",~15%
same,reduction of intracellular p24,"[1]; 30 μM CPX, within 24 hr",30%
same,increase of Vpr level,"[1]; 30 μM CPX, within 48 hr",~70%
same,reduction of intracellular p24,"[1]; 30 μM CPX, within 48 hr",70%
same,dose-dependent change in Bcl-2 content,"[1]; 24 hr, H9 and H9-HIV",neither of these measures achieved statistical significance
same,cells positive for Bcl-2,"[1]; CPX 24 hr, irrespective of infection (H9 and H9-HIV)",~35%
same,day after which viral RNA was not detected,[2]; CPX 30 μM from day 7,> 38 days
same,day after which viral protein was not detected,[2]; CPX 30 μM from day 7,> 21 days
same,decline in HIV-1 RNA levels,[2]; CPX 30 μM from day 7,four orders of magnitude
same,level of p24,[2]; [4],to the limit of detectability
same,level of viral RNA,[2]; [4],to the limit of detectability
same,rebound of HIV-1 infection after drug withdrawal,[2],productive infection does not return after drug removal
same,accumulation of FF mRNA,[3],decreased accumulation of FF mRNA
same,reduction of spliced and unspliced HIV RNAs,[3],~50%
"Cc1c(O)c(=O)ccn1C [DEF, 3-hydroxy-1,2-dimethylpyridin-4(1H)-one]","response of retroviral proteins Rev, p24, Tat, Vpr",[1]; DEF,"sparing Rev, decreasing p24 and Tat, and increasing Vpr"
same,rebound of HIV-1 infection after drug withdrawal,[2],productive infection does not return after drug removal
same,accumulation of FF mRNA,[3],decreased accumulation of FF mRNA
same,reduction of spliced and unspliced HIV RNAs,[3],~50%

# — patent publication US20120225093A1, “Abrogating HIV-1 Infection via Drug-Induced Reactivation of Apoptosis” (UNIVERSITY OF MEDICINE AND DENTISTRY OF NEW JERSEY, priority 2010, published 2012)
